Consider 8 compounds from patent US7763596B2, “Selective glucocorticoid receptor agonists” (The University of Manchester, priority 2000, dated 2010).

Experiment [1] addresses T1, glucocorticoid receptor (Homo sapiens, UniProt P04150).
T1 sequence (P04150 1-777): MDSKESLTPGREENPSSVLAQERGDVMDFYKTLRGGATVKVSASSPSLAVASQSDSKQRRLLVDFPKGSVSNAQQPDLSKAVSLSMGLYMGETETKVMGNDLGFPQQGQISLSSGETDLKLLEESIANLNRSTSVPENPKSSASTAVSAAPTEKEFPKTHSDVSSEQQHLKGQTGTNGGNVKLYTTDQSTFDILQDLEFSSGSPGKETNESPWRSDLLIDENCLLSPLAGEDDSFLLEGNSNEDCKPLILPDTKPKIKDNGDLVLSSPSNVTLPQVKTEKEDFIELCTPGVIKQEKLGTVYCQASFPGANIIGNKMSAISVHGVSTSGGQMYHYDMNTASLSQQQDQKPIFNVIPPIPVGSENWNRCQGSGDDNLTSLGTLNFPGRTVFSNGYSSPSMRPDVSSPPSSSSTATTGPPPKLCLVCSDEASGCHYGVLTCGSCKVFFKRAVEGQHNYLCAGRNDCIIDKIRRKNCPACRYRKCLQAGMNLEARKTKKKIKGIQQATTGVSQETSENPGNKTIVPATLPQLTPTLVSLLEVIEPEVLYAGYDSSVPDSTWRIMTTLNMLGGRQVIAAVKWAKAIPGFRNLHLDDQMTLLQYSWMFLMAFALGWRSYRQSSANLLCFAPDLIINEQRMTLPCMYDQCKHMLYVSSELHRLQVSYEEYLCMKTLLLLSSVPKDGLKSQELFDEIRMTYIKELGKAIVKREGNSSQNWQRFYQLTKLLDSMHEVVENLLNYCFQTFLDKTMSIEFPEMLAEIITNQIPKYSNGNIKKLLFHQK
Description: Transrepression assay using artificially expressed glucocorticoid receptor and P65 in the COS 7 cell line (NRE luciferase). Set-up: expressed in transfected cells; host or cells: COS 7 (African green monkey kidney, deficient in endogenous GR). The experiment is classed as cell-based. The conditions noted are these: 1, 10 and 100 nM. Here is the method: (§1) All transfections were performed using lipofectamine plus (Gibco BRL), according to the manufacturers' instructions, as previously described^1. Briefly, all cells were seeded at 5×10^5 per 10 cm tissue culture plate 18 hours before transfection, the next day the relevant plasmids were mixed with serum free medium and “Plus” reagent (Gibco BRL) and incubated for 15 mins, lipofectamine reagent was added and the mix was incubated for a further 15 mins, this mix was added to the cells on serum free medium in the 10 cm tissue culture plates and left for 3 hours, the cells were then trypsinised and divided into 24 well plates, the cells were left to recover overnight and were treated with steroid for 16 hours before harvest. All experiments were performed from one transfection in triplicate and on separate occasions with similar results.
(§2) The firefly luciferase gene catalyses the production of light from the substrate luciferin. When plasmid constructs containing this gene are transfected into cell lines the activity of the gene can be assessed by the intensity of the luminesence. The luciferase assay yields luminescence through an ATP-dependent oxidation of luciferin the amount of light produced can be measured by a luminometer and is a measure of gene activity (Davis, 1996). Light intensity was measured in a Luminometer (LB 9501, Berthold). The light intensity should be proportional to luciferase concentration in the range of 10^−16M (10 μg/L) to 10^−8M (1 mg/L). To measure the luminescence of the treated cells 150 μl of 1× reporter lysis buffer (RLB: 25 mM Tris phosphate pH7.8, 10 mM MgCl2, 15% Glycerol, 1% Triton, 1 mM EDTA) was added to the 24 well plates to lyse the cells and incubated at room temperature for 30 mins whilst being shaken. Then 100 μl of the room temperature cell extract were mixed with 100 μl of room temperature Luciferase Assay Reagent (LAR: 1 mM ATP, 0.3 mM D-Luciferin, 66% RLB). This reaction was mixed in a luminometer (LB 9501, Berthold) and the light produced was measured for a period of 5 seconds.
To perform this assay the GR and p65 were artificially expressed in a cell line lacking GR and deficient in endogenous P65. The ability of P65 to activate an NFkB response element (NRE) “driving” a luciferase reporter gene could then be repressed by GR in a ligand dependent manner and, therefore, used to measure transrepression.
COS7 cells were transfected with 1 μg pcDNA3-GR and 3 μg NRE-Luc and 200 ng p65 per 10 cm tissue culture dish. The cells were plated out in to 24 well plates after transfection and left for 18 hours to recover before the steroids of FIGS. 1 and 2A were added. After another 18 hour incubation the cells were lysed and a luciferase assay was performed.

In the next experiment the test system is CEM-C7A cells. The experiment is described as follows: Apoptosis assay in CEM-C7A cells (viable cell count, MTS). The format is cell-based, human. The conditions noted are these: CEM C7A cells, 100 nM, three day incubation. Here is the method:
The CEM-C7A cell line is a steroid sensitive clone of the CCRF-CEM cell line (ECACC 85112105). This is a T lymphoblastoid cell line with functional endogenous GR.
Apoptosis (programmed cell death) is mediated by a protein called Bax the transcription of which is primarily controlled by the GR in a ligand dependant manner. To measure the ability of a GR ligand to effect apoptosis a suitable cell line was incubated with ligand and a viable cell count was performed after three days.
CEM-C7A cells were plated out on to a 96well plate at 5×10^5/well. The steroids of FIGS. 1 and 2A were added immediately to generate a final concentration of 100 nM. After a three day incubation the live cell number in each well was assessed using Celltiter 96 Aqueous Non-Radioactive Cell Proliferation Assay (Promega). This assay is a calorimetric method for determining the number of viable cells in proliferation or chemosensitivity assays.
Briefly, the assay is composed of solutions of a novel tetrazolium compound (3-(4,5-dimethylthiazol-2-yl)-5-(3-carboxymethoxyphenyl)-2-(4-sulfophenyl)-2H-tetrazolium, MTS) and an electron coupling reagent (phenazine methosulfate; PMS). MTS is bioreduced by cells into a formazan product that is soluble in tissue culture medium. The absorbance of the formazan at 490 nm can be measured directly from 96 well assay plates without additional processing. The conversion of MTS into aqueous, soluble formazan is accomplished by dehydrogenase enzymes found in metabolically active cells. The quantity of formazan product as measured by the amount of 490 nm absorbance is directly proportional to the number of living cells in culture.

The target in experiment [2] is T1, glucocorticoid receptor. The experiment is described as follows: Transactivation assay using artificially expressed glucocorticoid receptor in the COS 7 monkey kidney cell line (GRE luciferase). The experiment is classed as cell-based. The arrangement: expressed in transfected cells; host or cells: COS 7 (African green monkey kidney, deficient in endogenous GR). The conditions noted are these: for ability to transactivate (luminescence) compared to dexamethasone: 1, 10 and 100 nM, FIGS. 3 and 4; for transactivation potential (luminescence) compared to dexamethasone, repeat experiment: 1, 10, 10 and 500 nM, FIG. 5. Here is the method:
as §1, §2
In this assay the GR was artificially expressed in a cell line lacking endogenous GR and a glucocorticoid response element (GRE) “driving” a luciferase reporter gene was used to measure ligand dependent activation.
COS7 cells were transfected with 1 μg pcDNA3-GR and 3 μg AH3-Luc per 10 cm tissue culture dish. The cells were plated out in to 24 well plates after transfection and the steroids were added immediately. After 18 hour incubation the cells were lysed and a luciferase assay was performed.

The structures appear in SMILES notation. Entries after “also recorded” stand apart in the source; their conditions may differ.

For the compound `CC1CC2C3CCC4=CC(=O)C=CC4(C)C3(F)C(O)CC2(C)C12OC(C)(C)OCC2=O` (stereo not shown) [Compound A], at glucocorticoid receptor [1], the “repression of P65 stimulation of an NFkB response element compared with dexamethasone” value (shortened to “repression … compared with dexamethasone”) is given as “less potent than dexamethasone but produced the same maximal response at 100 nM”. Besides, the induction of apoptosis result in the experiment on CEM-C7A cells is “most potent inducers of apoptosis”.

With `CC1CC2C3CCC4=CC(=O)C=CC4(C)C3(F)C(O)CC2(C)C1(O)C(=O)COC(=O)c1ccc(F)cc1` (stereo not shown) [Compound D], the “repression … compared with dexamethasone” value at glucocorticoid receptor [1] is “as potent as dexamethasone”. The “ability to transactivate (luminescence) compared to dexamethasone” value (from here on “ability … compared to dexamethasone”) at glucocorticoid receptor [2] was “more active in causing transactivation than dexamethasone”.

With `CCCNC(=O)C1(O)C(C)CC2C3CCC4=CC(=O)C=CC4(C)C3(F)C(O)CC21C` (stereo not shown) [Compound G], on glucocorticoid receptor [1], the “repression … compared with dexamethasone” value is ““left shifted” response and greater maximal repression”. Besides, at glucocorticoid receptor [2], the “transactivation potential (luminescence) compared to dexamethasone, repeat experiment” value was ““right shifted response” and a reduced maximum compared to dexamethasone; also recorded: lowest overall maximal response”; the “ability … compared to dexamethasone” value was “much less potent and had a lower maximal effect when compared to dexamethasone”. In addition, the induction of apoptosis result in the experiment with CEM-C7A cells was “apoptosis was induced”.

Consider `Cc1ccc(NC(=O)C2(O)C(C)CC3C4CCC5=CC(=O)C=CC5(C)C4(F)C(O)CC32C)cc1` (stereo not shown) [Compound O], for which the “repression … compared with dexamethasone” value at glucocorticoid receptor [1] is given as “failed completely to repress P65 function”. In addition, the “ability … compared to dexamethasone” value at glucocorticoid receptor [2] is given as “failed to generate a response at any concentration”.

On to `CCCCCCNC(=O)OCC(=O)C1(O)C(C)CC2C3CCC4=CC(=O)C=CC4(C)C3(F)C(O)CC21C` (stereo not shown) [Compound T], for which the “repression … compared with dexamethasone” value on glucocorticoid receptor [1] was ““left shifted” response and greater maximal repression”. Moreover, the “transactivation potential (luminescence) compared to dexamethasone, repeat experiment” value on glucocorticoid receptor [2] was ““right shifted response” and a reduced maximum compared to dexamethasone”.

As to `CC1CC2C3CCC4=CC(=O)C=CC4(C)C3(F)C(O)CC2(C)C1(O)C(=O)NCCCO` (stereo not shown) [L], the “repression … compared with dexamethasone” value on glucocorticoid receptor [1] is “failed completely to repress P65 function”. In addition, the “ability … compared to dexamethasone” value on glucocorticoid receptor [2] is given as “failed to generate a response at any concentration”.

As to `CC1CC2C3CCC4=CC(=O)C=CC4(C)C3(F)C(O)CC2(C)C1(O)C(=O)NCCC(=O)O` (stereo not shown) [Q], the “repression … compared with dexamethasone” value on glucocorticoid receptor [1] is “no effect at 1 and 10 nM with only a negligible repression at 100 nM”. Also, at glucocorticoid receptor [2], the “ability … compared to dexamethasone” value was “failed to generate a response at any concentration”. Also, the induction of apoptosis result in the experiment on CEM-C7A cells is on record as “not”.

For the compound `CCCOC(=O)C1(O)C(C)CC2C3CCC4=CC(=O)C=CC4(C)C3(F)C(O)CC21C` (stereo not shown) [R], the “repression … compared with dexamethasone” value at glucocorticoid receptor [1] is reported as “failed completely to repress P65 function”. Further, on glucocorticoid receptor [2], the “ability … compared to dexamethasone” value is recorded as “failed to generate a response at any concentration”.
